# Measurements published in patent publication US9980979B2, “Compounds and methods for enhancing erythropoiesis” (NATIONAL YANG-MING UNIVERSITY, priority 2008, dated 2018).
# Experiments:
# erythropoietin (Epo) = test: liver expression of Epo in cisplatin-induced acute renal failure animal model (PCR); assay type: in vivo, mouse; details: 30~90 mg/kg/day, day 28, versus untreated control group; FIG. 9
# Experimental: The effects of Compound A treatment on cisplatin-induced acute renal failure animal model were investigated. C57BL/6JNarl mice (8-week-old) were purchased from the National Laboratory Animal Center (NLAC, Taiwan). Cisplatin (Sigma-Aldrich) was dissolved in normal saline (0.9% (w/v) sodium chloride, Sigma-Aldrich) at a concentration of 1 mg/ml, and injected into mice intraperitoneally (i.p.) according to the following schedule: day 1, 7 mg/kg; day 5, 6 mg/kg; and day 9, 6 mg/kg. For cisplatin-untreated normal mice group, normal saline injections of corresponding volumes were given i.p. in parallel. At day 13, serum samples were collected and blood urea nitrogen (BUN) contents were assayed. […]
# At the end of the experiments described in EXAMPLE 6 (i.e., day 28), mice were sacrificed, kidney and liver tissues were removed, and bone marrow cells were isolated. […] The reverse-transcribed cDNA samples were analyzed by PCR using ABI GeneAmp™ system 2700 (Applied Biosystems) and the SYBR Green Master Mix kit (Applied Biosystems) using primers targeting toward mouse glyceraldehyde 3-phosphate dehydrogenase (GAPDH) (SEQ ID NOs: 5 and 6), erythropoietin (Epo) (SEQ ID NOs: 3 and 4) and hepatocyte growth factor (HGF) (SEQ ID NOs: 7 and 8) (Table 1). Results were expressed as relative index±S.E. (n=5˜6). […]
# [1] = comparison with 3,4′,5-trihydroxy-trans-stilbene (data not shown)
compound,measurement,setting,value
"OC[C@H]1O[C@@H](Oc2c(O)cc(O)cc2/C=C/c2ccc(O)cc2)[C@H](O)[C@@H](O)[C@@H]1O [Compound A, 2,3,5,4′-tetrahydroxystilbene 2-O-β-D-glucopyranoside]",expression of Epo in liver (relative index),erythropoietin (Epo),significantly increased the expression of Epo in liver
same,"enhancing renal functions and improving anemia, compared with 3,4′,5-trihydroxy-trans-stilbene",[1]; data not shown,"superior to 3,4′,5-trihydroxy-trans-stilbene"
same,"enhancing erythropoiesis and kidney functions, compared with 3,4′,5-trihydroxy-trans-stilbene",[1]; no data shown,"superior to 3,4′,5-trihydroxy-trans-stilbene"
